Converted amounts (≈) assume the structure as drawn. Like-named read-outs stand apart in the source and are kept apart here. Marks after values point to notes of the source that are not given here. Where a SMILES comes first, the peptide text is derived from it.
What was measured:
[1] = system: EMR Staphylococcus aureus-15 (EMRSA-15); type: cell-based; conditions: for MIC on initial panels / MIC: EMRSA15; for MIC on initial panels: medium and unit inferred; for MIC: untitled table, medium/unit inferred, values match RPMI of Table 2; for MIC, Peptide concentration: Mueller-Hinton broth
HEK293 = assay: Cytotoxicity assay (XTT); type: cell-based, human; conditions: for Toxicity HEK293: unit not given; for Toxicity HEK293 (EC50), Peptide concentration: value printed in parentheses
Method in brief: (§1)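 Cells seeded 24 h in EMEM with 10% FBS and NEAA at 37 °C, 10% CO2, then medium replaced with peptide dilutions. After a further 24 h exposure, viability read by XTT tetrazolium staining.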

[2] = system: VR Enterococcus faecium NCTC 12204; assay: Antibacterial activity assay (broth microdilution MIC); type: cell-based; conditions: VRE12204, in µg/mL; for MIC on initial panels: medium and unit not given; for MIC: untitled table, medium/unit not given, values match RPMI of Table 2
VRE12201 = assay: as above; type: cell-based, Enterococcus faecalis; conditions: medium and unit inferred
From the text: Antibacterial activity assay.
The bacterial strains used are as in the above examples. A table of strains is provided below to aid understanding.

[3] = system: Acinetobacter baumannii ATCC 17978; type: cell-based; conditions: in µg/mL; for MIC on initial panels / MIC: AB17978; for MIC on initial panels: medium and unit not given; for MIC: untitled table, medium/unit not given, values match RPMI of Table 2; for MIC, Stability in serum (MH): Ab17978
human red blood cells = assay: Haemolysis assay; conditions: for Toxicity HC50, Peptide concentration: red cells of human, 1 h
Description: Haemolysis assay. Haemolysis was tested by incubating titrations of AMPs in PBS with freshly collected human red blood cells for 1 hour at 37 C. Control wells were treated with 0.1% Triton-X-100 to ensure complete lysis, or PBS-only to represent no lysis. Samples were spun down to remove non-lysed cells and the OD^550 of the supernatant was measured using a Clariostar plate reader. The percentage of haemolysis was calculated as % haemolysis=(AP−AB)/(AC−AB)×100, where AP is the absorbance value for a known peptide concentration, AC is the absorbance of the 0.1% Triton-X-100 control, AB is the absorbance of the PBS control. Data presented are averages and standard error from three biological replicate experiments.
Methods: The natural AMP (termed AMP1) was modified to produce synthetic variants, AMPs 1a, 2a, 2b, 3a and 3b. Minimum inhibitory concentrations (MICs) were determined using the microbroth dilution assay with Mueller Hinton broth (MHB) or RPMI (with 5% FBS) and stability in serum was tested by conducting MICs in MHB containing 10% FBS. Synergy experiments were performed following a checkerboard protocol. Cytotoxicity was tested against HEK293 and HeLa immortalised human cell-lines using the XTT viability stain and by quantifying haemolysis of human red blood cells. Patch clamp analysis was performed using the Port-a-Patch® automated patch-clamp system on DPhPE/DPhPG (model for a Gram-negative plasma membrane) or DPhPG (Gram-positive) model membranes challenged with peptide. The murine lung infection model was performed using the agar bead model with Staphylococcus aureus strain NCTC 13616 (EMRSA-15).

[4] = system: Acinetobacter baumannii AYE; type: cell-based; conditions: AYE; for MIC on initial panels: medium and unit not given; for MIC on initial panels / MIC: in µg/mL; for MIC: untitled table, medium/unit not given, values match RPMI of Table 2
[5] = system: Klebsiella pneumoniae NCTC 13368; type: cell-based; conditions: KP13368, in µg/mL; for MIC on initial panels: medium and unit not given; for MIC: untitled table, medium/unit not given, values match RPMI of Table 2
[6] = system: Pseudomonas aeruginosa NCTC 13437; assay: Antibacterial activity assay (broth microdilution MIC); type: cell-based; conditions: PA13437, in µg/mL; for MIC on initial panels: medium and unit not given; for MIC: untitled table, medium/unit not given, values match RPMI of Table 2
[7] = system: MS Staphylococcus aureus ATCC 9144; type: cell-based; conditions: for MIC on initial panels / MIC: MSSA9144; for MIC on initial panels: medium and unit inferred; for MIC: untitled table, medium/unit not given, values match RPMI of Table 2, in µg/mL
[8] = system: VS Enterococcus faecalis NCTC 775; assay: Antibacterial activity assay (broth microdilution MIC); type: cell-based; conditions: for MIC, Peptide concentration: Mueller-Hinton broth; for MIC on initial panels: VSE775, medium and unit not given, in µg/mL
[9] = system: EMR Staphylococcus aureus-16 (EMRSA-16); type: cell-based; conditions: EMRSA16; for MIC on initial panels: medium and unit not given, in µg/mL; for MIC: untitled table, medium/unit inferred, values match RPMI of Table 2
Klebsiella pneumoniae M6 = type: cell-based; conditions: for MIC on initial panels: medium and unit not given, in µg/mL; for MIC: untitled table, medium/unit not given, values match RPMI of Table 2, in µg/mL
[10] = system: Escherichia coli NCTC 12923; type: cell-based; conditions: for MIC, Stability in serum (MH) / MIC on initial panels / MIC: EC12923; for MIC on initial panels: medium and unit not given; for MIC on initial panels / MIC: in µg/mL; for MIC: untitled table, medium/unit not given, values match RPMI of Table 2
[11] = system: Pseudomonas aeruginosa PA01; assay: Antibacterial activity assay (broth microdilution MIC); type: cell-based; conditions: for MIC, Stability in serum (MH) / MIC on initial panels: in µg/mL; for MIC on initial panels: medium and unit not given; for MIC: untitled table, medium/unit inferred, values match RPMI of Table 2
HeLa = assay: Cytotoxicity assay (XTT); type: cell-based, human; design: Toxicity HeLa: unit not given beside the values; conditions: for Toxicity HeLa: unit not given; for Toxicity HeLa (EC50), Peptide concentration: value printed in parentheses
Method in brief: as §1

CC(C)C[C@@H](NC(=O)[C@@H](Cc1ccc(O)cc1)NC(=O)[C@@H](Cc1c[nH]cn1)NC(=O)[C@H](NC(=O)[C@@H](CC(C)C)NC(=O)[C@@H](C)NC(=O)[C@@H](C)NC(=O)[C@@H](CCCNC(=N)N)NC(=O)CNC(=O)[C@H](NC(=O)[C@@H](Cc1c[nH]cn1)NC(=O)[C@@H](CCCNC(=N)N)NC(=O)CNC(=O)[C@H](NC(=O)[C@@H](Cc1c[nH]cn1)NC(=O)[C@@H](C)NC(=O)[C@@H](C)NC(=O)[C@@H](CCCNC(=N)N)NC(=O)[C@@H](CCCNC(=N)N)NC(=O)[C@@H](Cc1ccccc1)NC(=O)[C@@H](Cc1ccccc1)NC(=O)[C@@H](CO)NC(=O)CNC(=O)[C@@H](Cc1c[nH]c2ccccc12)NC(=O)CN)C(C)C)C(C)C)[C@H](C)O)C(N)=O [D-pleurocidin-KR] (HELM PEPTIDE1{G.[dW].G.[dS].[dF].[dF].[dR].[dR].[dA].[dA].[dH].[dV].G.[dR].[dH].[dV].G.[dR].[dA].[dA].[dL].[dT].[dH].[dY].[dL].[am]}$$$$V2.0; N-terminus assumed)
MIC on initial panels [1]: 2 µg/mL (≈ 0.709 µM)
MIC [1]: 0.5 µg/mL (≈ 0.177 µM)
MIC, Peptide concentration [1]: 2 µg/mL (≈ 0.709 µM)
MIC, Peptide concentration ([1]; listed as D-PLEUROCIDIN-KR): 4 µg/mL (≈ 1.42 µM)
Toxicity HEK293 (HEK293): 36.4 ± 4.3
Toxicity HEK293 (EC50), Peptide concentration (HEK293): (36.4 ± 4.3) μg/ml
MIC on initial panels [2]: 2
MIC [2]: 2
MIC on initial panels (VRE12201): 8 µg/mL (≈ 2.83 µM)
MIC on initial panels [3]: 2
MIC [3]: 4
MIC, Stability in serum (MH) ([3]; No serum): 2
MIC, Stability in serum (MH) ([3]; Serum (10% fetal bovine serum)): 0.5
therapeutic index over red blood cell haemolysis (human red blood cells): at least 100 fold
Toxicity HC50, Peptide concentration (human red blood cells): ~400 µg/mL
MIC, Stability in serum (MH) ([4]; No serum): 2 µg/mL (≈ 0.709 µM)
MIC, Stability in serum (MH) ([4]; Serum (10% fetal bovine serum)): 0.5 µg/mL (≈ 0.177 µM)
MIC on initial panels [4]: 2
MIC [4]: 2
MIC, Stability in serum (MH) ([5]; No serum): 2
MIC, Stability in serum (MH) ([5]; Serum (10% fetal bovine serum)): 1
MIC on initial panels [5]: 2
MIC [5]: 4
MIC, Stability in serum (MH) ([6]; No serum): 4
MIC, Stability in serum (MH) ([6]; Serum (10% fetal bovine serum)): 8
MIC on initial panels [6]: 4
MIC [6]: 16
MIC on initial panels [7]: 2 µg/mL (≈ 0.709 µM)
MIC [7]: 0.25-0.5
MIC, Peptide concentration [8]: 8 (NG) μg/ml
MIC on initial panels [8]: 8
MIC on initial panels [9]: 4
MIC [9]: 1 µg/mL (≈ 0.354 µM)
MIC, Stability in serum (MH) (Klebsiella pneumoniae M6; No serum): 2 µg/mL (≈ 0.709 µM)
MIC, Stability in serum (MH) (Klebsiella pneumoniae M6; Serum (10% fetal bovine serum)): 0.5 µg/mL (≈ 0.177 µM)
MIC on initial panels (Klebsiella pneumoniae M6): 2
MIC (Klebsiella pneumoniae M6): 4
MIC, Stability in serum (MH) ([10]; No serum): 1 µg/mL (≈ 0.354 µM)
MIC, Stability in serum (MH) ([10]; Serum (10% fetal bovine serum)): 0.25 µg/mL (≈ 0.0886 µM)
MIC on initial panels [10]: 1
MIC [10]: 2
MIC, Stability in serum (MH) ([11]; No serum): 4
MIC, Stability in serum (MH) ([11]; Serum (10% fetal bovine serum)): 4
MIC on initial panels [11]: 4
MIC [11]: 16 µg/mL (≈ 5.67 µM)
Toxicity HeLa (HeLa): 25.3 ± 2.2
Toxicity HeLa (EC50), Peptide concentration (HeLa): (25.3 ± 2.2) μg/ml

CC(C)C[C@H](NC(=O)[C@H](Cc1ccc(O)cc1)NC(=O)[C@H](Cc1c[nH]cn1)NC(=O)[C@@H](NC(=O)[C@H](CC(C)C)NC(=O)[C@H](C)NC(=O)[C@H](C)NC(=O)[C@H](CCCCN)NC(=O)CNC(=O)[C@H](C)NC(=O)[C@H](Cc1c[nH]cn1)NC(=O)[C@H](CCCCN)NC(=O)CNC(=O)[C@H](C)NC(=O)[C@H](Cc1c[nH]cn1)NC(=O)[C@H](C)NC(=O)[C@H](C)NC(=O)[C@H](CCCCN)NC(=O)[C@H](CCCCN)NC(=O)[C@H](Cc1ccccc1)NC(=O)[C@H](Cc1ccccc1)NC(=O)[C@H](CO)NC(=O)CNC(=O)[C@H](Cc1c[nH]c2ccccc12)NC(=O)CN)[C@@H](C)O)C(N)=O [Pleurocidin-VA] (H-GWGSFFKKAAHAGKHAGKAALTHYL-NH2; N-terminus assumed)
MIC on initial panels [1]: 64 µg/mL (≈ 24.1 µM)
MIC [1]: 32 µg/mL (≈ 12.1 µM)
Toxicity HEK293 (HEK293): ~400
Toxicity HEK293 (EC50), Peptide concentration (HEK293): (~400) μg/ml
MIC on initial panels [2]: 32-64
MIC [2]: 32
MIC on initial panels (VRE12201): > 128 µg/mL
MIC on initial panels [3]: 1-2
MIC [3]: 32
MIC, Stability in serum (MH) ([3]; No serum): 2
MIC, Stability in serum (MH) ([3]; Serum (10% fetal bovine serum)): 4
Toxicity HC50, Peptide concentration (human red blood cells): >>400 μg/ml
MIC, Peptide concentration [4]: 16 µg/mL (≈ 6.03 µM)
MIC, Stability in serum (MH) ([4]; No serum): 2 µg/mL (≈ 0.754 µM)
MIC, Stability in serum (MH) ([4]; Serum (10% fetal bovine serum)): 4 µg/mL (≈ 1.51 µM)
MIC on initial panels [4]: 2
MIC [4]: 16
MIC, Stability in serum (MH) ([5]; No serum): 8
MIC, Stability in serum (MH) ([5]; Serum (10% fetal bovine serum)): 16
MIC on initial panels [5]: 4-8
MIC [5]: 32
MIC, Stability in serum (MH) ([6]; No serum): 16*
MIC, Stability in serum (MH) ([6]; Serum (10% fetal bovine serum)): >128
MIC on initial panels [6]: 32
MIC [6]: >32
MIC, Peptide concentration ([7]; ATCC 9144): 8 µg/mL (≈ 3.01 µM)
MIC on initial panels [7]: 8 µg/mL (≈ 3.01 µM)
MIC [7]: 32
MIC, Peptide concentration [8]: 64-128 (NG) μg/ml
MIC on initial panels [8]: 64-128
MIC on initial panels [9]: 64-128
MIC [9]: > 32 µg/mL
MIC, Stability in serum (MH) (Klebsiella pneumoniae M6; No serum): 16 µg/mL (≈ 6.03 µM)
MIC, Stability in serum (MH) (Klebsiella pneumoniae M6; Serum (10% fetal bovine serum)): 8 µg/mL (≈ 3.01 µM)
MIC on initial panels (Klebsiella pneumoniae M6): 4-8
MIC (Klebsiella pneumoniae M6): 32
MIC, Stability in serum (MH) ([10]; No serum): 1 µg/mL (≈ 0.377 µM)
MIC, Stability in serum (MH) ([10]; Serum (10% fetal bovine serum)): 1 µg/mL (≈ 0.377 µM)
MIC on initial panels [10]: 1
MIC [10]: 32
MIC, Peptide concentration ([10]; NCTC 12923): 1 µg/mL (≈ 0.377 µM)
MIC, Stability in serum (MH) ([11]; No serum): 16*
MIC, Stability in serum (MH) ([11]; Serum (10% fetal bovine serum)): >128
MIC on initial panels [11]: 16-32
MIC [11]: > 32 µg/mL
Toxicity HeLa (HeLa): >400
Toxicity HeLa (EC50), Peptide concentration (HeLa): (>400) μg/ml

Reference: patent publication US20230047825A1, “ANTIMICROBIAL PEPTIDES” (priority 2019, published 2023)
